This note sets out measurements from patent US20240173255A1, “Polymeric Micelle Coated with Chain-Like Poorly Soluble Drug, Preparation Method and Application” (Hangzhou Hanjing Biotechnology Co., Ltd, priority 2021, published 2024).

In brackets after ≈: the same amount, converted by molar mass. Read-outs that look alike come from different tables or passages of the source.

Data set [1] can be described thus: Stability test in blood. As to conditions: 37° C., 2 h, FIG. 4. It is filed as in vitro ADME. The protocol: Taking the polymeric micelle prepared according to Example 2 as an example: in a 96-well plate, 10 μL of the polymeric micelle was added, then 190 μL of blood was added and shaken quickly to be uniform. At 37° C., a resulting mixture was taken out at preset time points of 5 min, 30 min, 60 min, and 120 min separately, and centrifuged at 3,000 rpm for 10 min to separate a plasma layer (upper layer) and a red blood cell layer (lower layer), each 100 μL. The plasma and red blood cell samples were treated using an organic solvent extraction method, and a concentration of CPD14 molecules in the samples was quantified and analyzed using HPLC (gradient method), while CPD14 molecules not entrapped by Soluplus were used as a control.

In data set [2] the test system is mouse liver cancer H22 cells. The experiment in a line: Cancer cell inhibition test (EZMTT), H22. As to conditions: 5 days culture. It is filed as cell-based. The protocol:
(§1) Taking the polymeric micelle prepared according to Example 2 as an example: the polymeric micelle was added to a 96-well plate, and 1,000 each of […] lung cancer A549 cells and mouse liver cancer H22 cells were added to each well.

Data set [3] can be described thus: Bioavailability test (pharmacokinetics) in ICR mice. It is filed as in vivo, mouse. As to conditions: 10 mg/kg tail vein injection. The protocol: 36 Institute of Cancer Research (ICR) mice weighing about 20 g were randomly divided into 2 groups, with 18 mice in each group. The mice all were separately administered using a CPD14 injection without Soluplus entrapment prepared according to Example 2 and the polymeric micelle prepared according to Example 2 in the same concentration, at a dose of 10 mg/kg by tail vein injection. Blood was collected at 0.003 h, 0.17 h, 0.5 h, 1 h, 2 h, 4 h, 8 h, 12 h, and 24 h after administration, and a plasma concentration of CPD14 was measured after treating the whole blood or plasma.

The test system of data set [4] is H22 mouse liver cancer subcutaneous tumor transplants. The experiment in a line: Treatment test on subcutaneous tumor transplants in mice. Type of data set: in vivo. As to conditions: ICR mice, 20 mg/kg tail vein once a day for 10 days, tumors removed on 11th day. The procedure:
30 ICR mice weighing about 20 g were randomly divided into 3 groups, with 10 mice in each group. Liver cancer H22 cells were inoculated subcutaneously into the right armpit of mice. The next day, mice in Group 1 were injected with CPD14 injection without Soluplus prepared according to Example 2 at 20 mg/kg through the tail vein; mice in Group 2 waere injected with the polymeric micelle prepared according to Example 2 at 20 mg/kg through the tail vein; and mice in Group 3 were injected with the Soluplus blank micelle without drug at 20 mg/kg through the tail vein. The mice were injected once a day for 10 consecutive days, and the body weight of the mice was recorded and the status of the mice was observed every day. On the 11th day, the tumors of the mice were removed and measured.

Data set [5] has as its system mouse lung cancer A549 cells. The experiment in a line: Cancer cell inhibition test (EZMTT), A549. Type of data set: cell-based. To be noted: 5 days culture. The protocol: as §1
Data set [6] can be described thus: Solubility of series A to E drugs in water and 10% Soluplus solution. Type of data set: physicochemical. The text has this:
The solubilities of the poorly soluble chain-like drugs of the series A to E according to the present disclosure in water and a 10% Soluplus solution are shown in Table 2.

Data set [7] can be described thus: Hydrophobic constant. Type of data set: physicochemical. An excerpt:
(§2) The hydrophobic constants and solubilities of the selenium-containing glutaminase inhibitors from series A to E prepared according to Examples 1 to 5 of the present disclosure as well as the commercially available ethaselen in water, dimethylsulfoxide (DMSO), and Soluplus solutions are shown in Table 4.

The nature of data set [8]: Solubilities of ethaselen and compounds of Examples 1 to 5 in water, DMSO and Soluplus solutions. It is filed as physicochemical.
From the text: as §2

As for `COc1ccc2[se]n(CCCCCCn3[se]c4ccc(O)cc4c3=O)c(=O)c2c1` [CPD14], the “stability rate in blood” value in data set [1] is given as “significantly lower than that of the polymeric micelle”. Also, half-maximal inhibition in data set [2] (IC50) required 510 ± 40 nM. In data set [3], the “AUC0 h→24 h” value came out at 9.6 ± 1.1 µg·h/mL, the CL was 1.02 ± 0.12 L/h/kg, the Cmax (usually the maximum level reached in the sampled fluid or tissue) was determined as 6.6 ± 0.7 µg/mL and the T1/2β worked out at 1.7 ± 0.01 h. The Tmax – broadly, the time at which the peak concentration occurs – in data set [3] was determined as 1.98 min. The “Tumor weight of H22 tumor transplant” value in data set [4] turned out to be 2.15 ± 0.05 g. Further, in data set [5], half-maximal inhibition (IC50) required 490 ± 70 nM. Also, the “Solubility in 10% Soluplus” value in data set [6] (10% Soluplus solution) is given as above 1 mg/mL. The same molecule came in with a Solubility in water in data set [6] (water) of 0.01 mg/mL (≈ 19.1 µM).
Molecule `O=c1c2ccccc2[se]n1CCn1[se]c2ccccc2c1=O` [Ethaselen, ethaselen] showed a Hydrophobic constant in data set [7] of 1.87. The Solubility (in general, the dissolved amount per volume that the medium holds) in data set [8] (DMSO, organic solvent or mixture, read-out: Solubility in DMSO) was 22 mg/mL (≈ 52100 µM); in data set [8] (water, read-out: Solubility in Water) it was 0.002 to 0.003 mg/mL (≈ 4.74 to 7.11 µM).
